In the NIST ThermoML archive (doi:10.1016/j.jct.2016.10.039):
Numbers after ± are expanded uncertainties.

Assay: mn = molality of the nth substance listed, in mol/kg
Details: 298.15 K, 85 kPa, Liquid, Alternating current cell with electrodes

CCCCCCCCCCCCn1cc[n+](C)c1.[Br-] [1-dodecyl-3-methylimidazolium bromide] + O
electrical conductivity (m1 = 0.00123): 0.0086 ± 0.0007 S/m
electrical conductivity (m1 = 0.00244): 0.0169 ± 0.0014 S/m
electrical conductivity (m1 = 0.00361): 0.0251 ± 0.0021 S/m
electrical conductivity (m1 = 0.00476): 0.0331 ± 0.0028 S/m
electrical conductivity (m1 = 0.00588): 0.0411 ± 0.0034 S/m
electrical conductivity (m1 = 0.00698): 0.0489 ± 0.0041 S/m
electrical conductivity (m1 = 0.00805): 0.0567 ± 0.0049 S/m
electrical conductivity (m1 = 0.00909): 0.0644 ± 0.0049 S/m
electrical conductivity (m1 = 0.01011): 0.0702 ± 0.0039 S/m
electrical conductivity (m1 = 0.01111): 0.0736 ± 0.0031 S/m
electrical conductivity (m1 = 0.01209): 0.0764 ± 0.003 S/m
electrical conductivity (m1 = 0.01304): 0.0788 ± 0.0032 S/m
electrical conductivity (m1 = 0.01398): 0.0814 ± 0.0033 S/m
electrical conductivity (m1 = 0.01489): 0.0836 ± 0.0032 S/m
electrical conductivity (m1 = 0.01579): 0.0856 ± 0.0034 S/m
electrical conductivity (m1 = 0.01667): 0.0877 ± 0.0037 S/m
electrical conductivity (m1 = 0.01753): 0.0898 ± 0.0038 S/m
electrical conductivity (m1 = 0.01837): 0.0918 ± 0.004 S/m
electrical conductivity (m1 = 0.01919): 0.0938 ± 0.0041 S/m
electrical conductivity (m1 = 0.02): 0.0957 ± 0.0043 S/m
electrical conductivity (m1 = 0.02079): 0.0977 ± 0.0047 S/m
electrical conductivity (m1 = 0.02157): 0.0997 ± 0.002 S/m

CCCCCCCCCCCC[N+](C)(C)C.[Br-] [dodecyltrimethylammonium bromide] + O
electrical conductivity (m1 = 0.00185): 0.0125 ± 0.001 S/m
electrical conductivity (m1 = 0.00366): 0.0246 ± 0.002 S/m
electrical conductivity (m1 = 0.00542): 0.0367 ± 0.0031 S/m
electrical conductivity (m1 = 0.00714): 0.0487 ± 0.0042 S/m
electrical conductivity (m1 = 0.00882): 0.0609 ± 0.0053 S/m
electrical conductivity (m1 = 0.01047): 0.0731 ± 0.0065 S/m
electrical conductivity (m1 = 0.01207): 0.0856 ± 0.0077 S/m
electrical conductivity (m1 = 0.01364): 0.0976 ± 0.0082 S/m
electrical conductivity (m1 = 0.01517): 0.108 ± 0.0076 S/m
electrical conductivity (m1 = 0.01667): 0.116 ± 0.0061 S/m
electrical conductivity (m1 = 0.01813): 0.121 ± 0.005 S/m
electrical conductivity (m1 = 0.01957): 0.125 ± 0.0049 S/m
electrical conductivity (m1 = 0.02097): 0.128 ± 0.005 S/m
electrical conductivity (m1 = 0.02234): 0.132 ± 0.0051 S/m
electrical conductivity (m1 = 0.02368): 0.135 ± 0.0054 S/m
electrical conductivity (m1 = 0.025): 0.138 ± 0.0056 S/m
electrical conductivity (m1 = 0.02629): 0.141 ± 0.006 S/m
electrical conductivity (m1 = 0.02755): 0.145 ± 0.0064 S/m
electrical conductivity (m1 = 0.02879): 0.148 ± 0.0066 S/m
electrical conductivity (m1 = 0.03): 0.151 ± 0.0068 S/m
electrical conductivity (m1 = 0.03119): 0.154 ± 0.0071 S/m
electrical conductivity (m1 = 0.03235): 0.157 ± 0.0073 S/m
electrical conductivity (m1 = 0.0335): 0.16 ± 0.0032 S/m

O [water] + CCCCCCCCCCCC[N+](C)(C)C.[Br-]
electrical conductivity (m2 = 0): 0.00021 ± 1e-05 S/m

O [water] + CCCCCCCCCCCCn1cc[n+](C)c1.[Br-]
electrical conductivity (m2 = 0): 0.00024 ± 1e-05 S/m
